Like-named read-outs stand apart in the source and are kept apart here.
Assays:
Type in all cases: in vivo
[1] = tested on: Beet Armyworm (Spodoptera exigua, LAPHEG) ("BAW"); assay: Bioassays on BAW, 128-well diet tray assay; settings: 168 h, read-out: BAW % Control (or Mortality) rating
Method: (§1) Certain molecules disclosed in this document were tested against BAW, CEW, and CL using procedures described in the following examples. In the reporting of the results, the “BAW, CEW, & CL Rating Table” was used (See Table Section).
Bioassays on BAW were conducted using a 128-well diet tray assay. one to five second instar BAW larvae were placed in each well (3 mL) of the diet tray that had been previously filled with 1 mL of artificial diet to which 50 μg/cm^2 of the test compound (dissolved in 50 μL of 90:10 acetone-water mixture) had been applied (to each of eight wells) and then allowed to dry. Trays were covered with a clear self-adhesive cover and held at 25° C., 14:10 light-dark for five to seven days. Percent mortality was recorded for the larvae in each well; activity in the eight wells was then averaged. The results are indicated in the table entitled “Table ABC: Biological Results” (See Table Section).

[2] = tested on: Cabbage Looper (Trichoplusia ni, TRIPNI) ("CL"); assay: Bioassays on CL, 128-well diet tray assay; settings: 168 h, read-out: CL % Control (or Mortality) rating
Method: as §1
Bioassays on CL were conducted using a 128-well diet tray assay. one to five second instar CL larvae were placed in each well (3 mL) of the diet tray that had been previously filled with 1 mL of artificial diet to which 50 μg/cm^2 of the test compound (dissolved in 50 μL of 90:10 acetone-water mixture) had been applied (to each of eight wells) and then allowed to dry. Trays were covered with a clear self-adhesive cover and held at 25° C., 14:10 light-dark for five to seven days. Percent mortality was recorded for the larvae in each well; activity in the eight wells was then averaged. The results are indicated in the table entitled “Table ABC: Biological Results” (See Table Section).

[3] = tested on: Yellow Fever Mosquito (Aedes aegypti, AEDSAE) ("YFM"); assay: Bioassays on YFM, 96-well plate larval assay; settings: about 1 day-old larvae, from 4000 ppm DMSO master plate diluted, room temperature, scored after 3 days
Method: Certain molecules disclosed in this document were tested against YFM using procedures described in the following paragraph. In the reporting of the results, the “YFM Rating Table” was used (See Table Section).
Master plates containing 400 μg of a molecule dissolved in 100 μL of dimethyl sulfoxide (DMSO) (equivalent to a 4000 ppm solution) are used. A master plate of assembled molecules contains 15 μL per well. To this plate, 135 μL of a 90:10 water:acetone mixture is added to each well. A robot (Biomek® NXP Laboratory Automation Workstation) is programmed to dispense 15 μL aspirations from the master plate into an empty 96-well shallow plate (“daughter” plate). There are 6 reps (“daughter” plates) created per master. The created daughter plates are then immediately infested with YFM larvae.
The day before plates are to be treated, mosquito eggs are placed in Millipore water containing liver powder to begin hatching (4 g. into 400 mL). After the daughter plates are created using the robot, they are infested with 220 μL of the liver powder/larval mosquito mixture (about 1 day-old larvae). After plates are infested with mosquito larvae, a non-evaporative lid is used to cover the plate to reduce drying. Plates are held at room temperature for 3 days prior to grading. After 3 days, each well is observed and scored based on mortality.

[4] = second instar larvae, 50 μg/cm^2 on artificial diet, 25° C., five to seven days, average of eight wells

Row | SMILES | mortality at 50 µg/cm2 [1, 4] | mortality at 50 µg/cm2 [2, 4] | YFM % Control (or Mortality) rating [3] | mortality at 50 µg/cm2 [1] | mortality at 50 µg/cm2 [2]
1 | O=C(Nc1ccc(-c2ncn(-c3ccc(OC(F)(F)C(F)(F)F)cc3)n2)cc1)Nc1ccccc1C1CC1 [F15, 1-(2-Cyclopropylphenyl)-3-(4-(1-(4-(perfluoroethoxy)phenyl)-1H-1,2,4-triazol-3-yl)phenyl)urea] | 50 to 100% | 50 to 100% | B (More than 0 - Less than 80) | – | –
2 | O=C(NCc1ccc(-c2ncn(-c3ccc(OC(F)(F)F)cc3)n2)cc1)Nc1cccc(Cl)c1 [F103, 1-(3-Chlorophenyl)-3-(4-(1-(4-(trifluoromethoxy)phenyl)-1H-1,2,4-triazol-3-yl)benzyl)urea] | 0 to 50% | 50 to 100% | A (80-100) | – | –
3 | COc1ccc(NC(=O)NCCCCc2ccc(-c3ncn(-c4ccc(OC(F)(F)F)cc4)n3)cc2)cc1 [F97, 1-(4-Methoxyphenyl)-3-(4-(4-(1-(4-(trifluoromethoxy)phenyl)-1H-1,2,4-triazol-3-yl)phenyl)butyl)urea] | 0 to 50% | 0% | D (No activity noticed in this bioassay) | – | –
4 | COc1ccc(NC(=O)NCc2ccc(-c3ncn(-c4ccc(OC(F)(F)F)cc4)n3)cc2)cc1 [F109, 1-(4-Methoxyphenyl)-3-(4-(1-(4-(trifluoromethoxy)phenyl)-1H-1,2,4-triazol-3-yl)benzyl)urea] | 0% | 0% | D (No activity noticed in this bioassay) | – | –
5 | O=C(NCCCCc1ccc(-c2ncn(-c3ccc(OC(F)(F)F)cc3)n2)cc1)Nc1ccc(Cl)cc1 [F94, 1-(4-Chlorophenyl)-3-(4-(4-(1-(4-(trifluoromethoxy)phenyl)-1H-1,2,4-triazol-3-yl)phenyl)butyl)urea] | 0% | 50 to 100% | D (No activity noticed in this bioassay) | – | –
6 | CSc1ccccc1-c1cccnc1NC(=O)Nc1ccc(-c2ncn(-c3ccc(OC(F)(F)F)cc3)n2)cc1 [F59, 1-(3-(2-(Methylthio)phenyl)pyridin-2-yl)-3-(4-(1-(4-(trifluoromethoxy)phenyl)-1H-1,2,4-triazol-3-yl)phenyl)urea] | 50 to 100% | 50 to 100% | D (No activity noticed in this bioassay) | – | –
7 | CC(C)c1ccccc1NC(=S)NCc1ccc(-c2ncn(-c3ccc(OC(F)(F)F)cc3)n2)cc1 [F45, 1-(2-isopropylphenyl)-3-(4-(1-(4-(trifluoromethoxy)phenyl)-1H-1,2,4-triazol-3-yl)benzyl)thiourea] | 0 to 50% | 50 to 100% | A (80-100) | – | –
8 | C=C(C)c1ccccc1NC(=O)Nc1ccc(-c2ncn(-c3ccc(OC(F)(F)F)cc3)n2)cc1 [F61, 1-(2-(Prop-1-en-2-yl)phenyl)-3-(4-(1-(4-(trifluoromethoxy)phenyl)-1H-1,2,4-triazol-3-yl)phenyl)urea] | 50 to 100% | 50 to 100% | D (No activity noticed in this bioassay) | – | –
9 | O=C(Nc1ccc(-c2ncn(-c3ccc(OC(F)(F)F)cc3)n2)cc1)Nc1ccccc1C(F)(F)F [F64, 1-(4-(1-(4-(trifluoromethoxy)phenyl)-1H-1,2,4-triazol-3-yl)phenyl)-3-(2-(trifluoromethyl)phenyl)urea] | 50 to 100% | 50 to 100% | B (More than 0 - Less than 80) | – | –
10 | O=C(Nc1ccc(-c2ncn(-c3ccc(OC(F)(F)F)cc3)n2)cc1)Nc1ccccc1C1CC1C1CC1 (stereo not drawn) [F49, 1-(2-([1,1′-Bi(cyclopropan)]-2-yl)phenyl)-3-(4-(1-(4-(trifluoromethoxy)phenyl)-1H-1,2,4-triazol-3-yl)phenyl)urea] | 0 to 50% | 50 to 100% | D (No activity noticed in this bioassay) | – | –
11 | CC(C)c1ccccc1NC(=O)Nc1ccc(-c2ncn(-c3ccc(OC(F)(F)C(F)(F)F)cc3)n2)cc1 [F54, 1-(2-Isopropylphenyl)-3-(4-(1-(4-(perfluoroethoxy)phenyl)-1H-1,2,4-triazol-3-yl)phenyl)urea] | 50 to 100% | 50 to 100% | D (No activity noticed in this bioassay) | – | –
12 | COc1ccccc1NC(=O)NCCCc1ccc(-c2ncn(-c3ccc(OC(F)(F)F)cc3)n2)cc1 [F81, 1-(2-Methoxyphenyl)-3-(3-(4-(1-(4-(trifluoromethoxy)phenyl)-1H-1,2,4-triazol-3-yl)phenyl)propyl)urea] | 50 to 100% | 50 to 100% | B (More than 0 - Less than 80) | – | –
13 | FC(F)(F)Oc1ccc(-n2cnc(-c3ccc(NC(=S)Nc4ncccc4-c4cccnc4)cc3)n2)cc1 [F56, 1-([3,3′-Bipyridin]-2-yl)-3-(4-(1-(4-(trifluoromethoxy)phenyl)-1H-1,2,4-triazol-3-yl)phenyl)thiourea] | 0 to 50% | 50 to 100% | D (No activity noticed in this bioassay) | – | –
14 | O=C(NCc1ccc(-c2ncn(-c3ccc(OC(F)(F)F)cc3)n2)cc1)Nc1ccc(Cl)cc1 [F105, 1-(4-Chlorophenyl)-3-(4-(1-(4-(trifluoromethoxy)phenyl)-1H-1,2,4-triazol-3-yl)benzyl)urea] | 50 to 100% | 50 to 100% | B (More than 0 - Less than 80) | – | –
15 | CC(C)c1ccccc1NC(=O)Nc1ccc(-c2ncn(-c3ccc(OC(F)(F)F)cc3)n2)cc1 [F33, 1-(2-Isopropylphenyl)-3-(4-(1-(4-(trifluoromethoxy)phenyl)-1H-1,2,4-triazol-3-yl)phenyl)urea] | 50 to 100% | 50 to 100% | B (More than 0 - Less than 80) | – | –
16 | CC(C)c1ccccc1NC(=S)NCCCc1ccc(-c2ncn(-c3ccc(OC(F)(F)F)cc3)n2)cc1 [F76, 1-(2-isopropylphenyl)-3-(3-(4-(1-(4-(trifluoromethoxy)phenyl)-1H-1,2,4-triazol-3-yl)phenyl)propyl)thiourea] | – | – | A (80-100) | 50 to 100% | 50 to 100%
17 | O=C(Nc1ccc(-c2ncn(-c3ccc(OC(F)(F)F)cc3)n2)cc1)Nc1ccccc1-c1cc(F)c(F)c(F)c1 [F9, 1-(3′,4′,5′-Trifluoro-[1,1′-biphenyl]-2-yl)-3-(4-(1-(4-(trifluoromethoxy)phenyl)-1H-1,2,4-triazol-3-yl)phenyl)urea] | 50 to 100% | 50 to 100% | D (No activity noticed in this bioassay) | – | –
18 | COc1cccc(NC(=O)NCCCc2ccc(-c3ncn(-c4ccc(OC(F)(F)F)cc4)n3)cc2)c1 [F80, 1-(3-Methoxyphenyl)-3-(3-(4-(1-(4-(trifluoromethoxy)phenyl)-1H-1,2,4-triazol-3-yl)phenyl)propyl)urea] | 50 to 100% | 50 to 100% | A (80-100) | – | –
19 | FC(F)(F)Oc1ccc(-n2cnc(-c3ccc(NC(=S)Nc4ccccc4-c4nnco4)cc3)n2)cc1 [F44, 1-(2-(1,3,4-Oxadiazol-2-yl)phenyl)-3-(4-(1-(4-(trifluoromethoxy)phenyl)-1H-1,2,4-triazol-3-yl)phenyl)thiourea] | 0% | 0% | D (No activity noticed in this bioassay) | – | –

From US9445594B2, “Molecules having certain pesticidal utilities, intermediates, compositions, and processes, related thereto” (priority 2014, dated 2016)
